Experiments:
[1] = system: Phakopsora pachyrhizi (F129L); assay: Protective control of soybean rust on soybeans (PHAKPA P6); format: in vivo; conditions: F129L isolate; for % PHAKPA (F129L) Disease level P6 at 4 ppm: protective P6, 4 ppm; for % PHAKPA (F129L) Disease level P6 at 16 ppm: protective P6, 16 ppm
[2] = system: Phakopsora pachyrhizi (F129L); assay: Protective control of soybean rust on soybeans (PHAKPA P2); format: in vivo; conditions: F129L isolate; for % PHAKPA (F129L) Disease level P2 at 4 ppm: protective P2, 4 ppm; for % PHAKPA (F129L) Disease level P2 at 16 ppm: protective P2, 16 ppm

Row | SMILES | % PHAKPA (F129L) Disease level P6 at 4 ppm [1] [%] | % PHAKPA (F129L) Disease level P6 at 16 ppm [1] [%] | % PHAKPA (F129L) Disease level P2 at 4 ppm [2] [%] | % PHAKPA (F129L) Disease level P2 at 16 ppm [2] [%]
1 | CO/C=C(/C(=O)OC)c1cccc(C)c1CO/N=C(\C)c1c(F)cccc1C(F)(F)F [compound 390] | 18 | 2 | 22 | 0
2 | CNC(=O)/C(=N/OC)c1cccc(C)c1CO/N=C(\CC(F)(F)F)c1ccccc1C [compound 393] | 93 | 42 | 93 | 55
3 | CNC(=O)/C(=N/OC)c1cccc(C)c1CO/N=C(\C)c1ccc(F)cc1CC(F)(F)F [compound 394] | 12 | 2 | 9 | 3
4 | CO/N=C(/C(=O)OC)c1cccc(Br)c1CO/N=C(\C)c1ccccc1 [compound 395] | 67 | 18 | 43 | 4
5 | CNC(=O)/C(=N/OC)c1cccc(Br)c1CO/N=C(\C)c1ccccc1 [compound 396] | 4 | 0 | 3 | 0
6 | C=C(C)c1cccc(/C(=N\OC)C(=O)NC)c1CO/N=C(\C)c1ccccc1 [compound 399] | 90 | 15 | 67 | 8
7 | C=Cc1cccc(/C(=N\OC)C(=O)NC)c1CO/N=C(\C)c1ccccc1 [compound 400] | 8 | 0 | 2 | 0
8 | C#Cc1cccc(/C(C)=N/OCc2c(C)cccc2/C(=N\OC)C(=O)NC)c1F [compound 401] | 32 | 4 | 17 | 5
9 | CO/C=C(/C(=O)OC)c1cccc(C)c1CO/N=C(\C)c1cc(F)c(F)cc1CC(F)(F)F [compound 405] | 70 | 27 | 97 | 27
10 | CNC(=O)/C(=N/OC)c1cccc(C)c1CO/N=C(\C)c1cc(F)c(F)cc1CC(F)(F)F [compound 406] | 67 | 23 | 97 | 30
11 | CNC(=O)/C(=N/OC)c1cccc(C)c1CO/N=C(\C)c1ccc(Cc2ccccc2)cc1C(F)(F)F [compound 407] | 17 | 4 | 12 | 6
12 | CO/N=C(/C(=O)OC)c1cccc(C)c1CO/N=C(\C)c1ccc(Cc2ccccc2)cc1C(F)(F)F [compound 408] | 33 | 13 | 30 | 12
13 | CO/N=C(/C(=O)OC)c1cccc(C)c1CO/N=C(\C)c1cc(F)c(F)cc1C(F)(F)F [compound 409] | 83 | 73 | 77 | 40
14 | CNC(=O)/C(=N/OC)c1cccc(C)c1CO/N=C(\C)c1cc(F)c(F)cc1C(F)(F)F [compound 410] | 35 | 1 | 9 | 0
15 | CNC(=O)/C(=N/OC)c1cccc(C)c1CO/N=C(\C)c1ccc(Cl)c(F)c1CC(F)(F)F [compound 412] | 40 | 6 | 47 | 6
16 | CNC(=O)/C(=N/OC)c1cccc(C)c1CO/N=C(\C)c1ccc(-c2ccccc2)cc1C(F)(F)F [compound 413] | 33 | 15 | 40 | 15
17 | CO/N=C(/C(=O)OC)c1cccc(C)c1CO/N=C(\C)c1ccc(-c2ccccc2)cc1C(F)(F)F [compound 414] | 53 | 15 | 53 | 9
18 | CNC(=O)/C(=N/OC)c1cccc(C)c1CO/N=C(\C)c1ccc(/C(C)=N\OC)cc1OC(F)(F)F [compound 415] | 67 | 11 | 47 | 5

Row | SMILES | % PHAKPA (F129L) Disease level P6 at 4 ppm [1] [%] | % PHAKPA (F129L) Disease level P6 at 16 ppm [1] [%] | % PHAKPA (F129L) Disease level P2 at 4 ppm [2] [%] | % PHAKPA (F129L) Disease level P2 at 16 ppm [2] [%]
19 | CO/N=C(/C(=O)OC)c1cccc(C)c1CO/N=C(\C)c1ccc(Cc2ccccc2)cc1OC(F)(F)F [compound 416] | 67 | 25 | 57 | 27
20 | CO/N=C(/C)c1ccc(/C(C)=N/OCc2c(C)cccc2/C(=N\OC)C(=O)OC)c(C(F)(F)F)c1 [compound 417] | 63 | 22 | 35 | 18
21 | CO/N=C(/C)c1ccc(/C(C)=N/OCc2c(C)cccc2/C(=N\OC)C(=O)OC)c(OC(F)(F)F)c1 [compound 418] | 73 | 57 | 70 | 33
22 | CNC(=O)/C(=N/OC)c1cccc(C)c1CO/N=C(\C)c1ccc(Cc2ccccc2)cc1OC(F)(F)F [compound 419] | 60 | 12 | 40 | 18
23 | CNC(=O)/C(=N/OC)c1cccc(C)c1CO/N=C(\C)c1ccc(/C(C)=N\OC)cc1C(F)(F)F [compound 420] | 12 | 1 | 8 | 0
24 | CO/N=C(/C(=O)OC)c1cccc(C)c1CO/N=C(\C)c1cccc(Cl)c1C(F)(F)F [compound 421] | 87 | 57 | 100 | 33
25 | CNC(=O)/C(=N/OC)c1cccc(C)c1CO/N=C(\C)c1cccc(Cl)c1C(F)(F)F [compound 422] | 32 | 2 | 30 | 0
26 | CO/N=C(/C(=O)OC)c1cccc(C)c1CO/N=C(\C)c1ccc(C#N)cc1C(F)(F)F [compound 423] | 93 | 53 | 100 | 57
27 | CNC(=O)/C(=N/OC)c1cccc(C)c1CO/N=C(\C)c1ccc(C#N)cc1C(F)(F)F [compound 424] | 97 | 50 | 100 | 27
28 | CO/N=C(/C(=O)OC)c1cccc(C)c1CO/N=C(\C)c1ccc(-c2ccc(F)cc2)cc1C(F)(F)F [compound 425] | 53 | 40 | 27 | 28
29 | CNC(=O)/C(=N/OC)c1cccc(C)c1CO/N=C(\C)c1ccc(-c2ccc(F)cc2)cc1C(F)(F)F [compound 426] | 27 | 10 | 7 | 1
30 | CO/N=C(/C(=O)OC)c1cccc(C)c1CO/N=C(\C)c1c(Cl)cc(Cl)cc1OC(F)(F)F [compound 427] | 60 | 47 | 100 | 90
31 | CNC(=O)/C(=N/OC)c1cccc(C)c1CO/N=C(\C)c1c(Cl)cc(Cl)cc1OC(F)(F)F [compound 428] | 83 | 20 | 70 | 11
32 | CO/N=C(/C(=O)OC)c1cccc(C)c1CO/N=C(\C)c1ccc(Cl)c(Cl)c1C(F)(F)F [compound 429] | 67 | 43 | 83 | 50
33 | CO/C=C(/C(=O)OC)c1cccc(C)c1CO/N=C(\C)c1ccc(Cl)c(Cl)c1C(F)(F)F [compound 430] | 37 | 17 | 22 | 6
34 | CNC(=O)/C(=N/OC)c1cccc(C)c1CO/N=C(\C)c1ccc(Cl)c(Cl)c1C(F)(F)F [compound 431] | 40 | 12 | 32 | 7
35 | CO/C=C(/C(=O)OC)c1cccc(C)c1CO/N=C(\C)c1ccc(-c2ccc(F)cc2)cc1C(F)(F)F [compound 432] | 13 | 3 | 12 | 0
